Data on seven molecules can be found in patent publication US6384261B1, “Phosphoramidates, phosphinic amides and related compounds and the use thereof to modulate the activity of endothelin” (Texas Biotechnology Corporation, priority 1996, dated 2002).

Read-outs that look alike come from different tables or passages of the source.

For assay [1], the target named is T1, human ETA receptors (Homo sapiens, UniProt P25101).
T1 construct: endogenous in cells; host or cells: TE 671 cells (ATCC HTB 139), membrane preparation
T1 sequence (P25101 21-427): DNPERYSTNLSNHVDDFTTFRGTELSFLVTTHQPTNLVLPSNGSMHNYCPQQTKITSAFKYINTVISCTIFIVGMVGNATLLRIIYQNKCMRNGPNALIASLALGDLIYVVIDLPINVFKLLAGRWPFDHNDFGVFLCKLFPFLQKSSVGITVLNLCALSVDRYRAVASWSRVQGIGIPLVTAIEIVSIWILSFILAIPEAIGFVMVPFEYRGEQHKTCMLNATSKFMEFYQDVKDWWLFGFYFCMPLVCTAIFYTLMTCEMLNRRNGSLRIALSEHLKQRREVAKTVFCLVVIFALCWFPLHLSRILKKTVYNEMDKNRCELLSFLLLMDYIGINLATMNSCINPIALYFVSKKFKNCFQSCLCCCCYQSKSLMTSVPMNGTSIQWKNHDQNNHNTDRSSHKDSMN
In words: Binding Test #1: inhibition of 125I-endothelin-1 binding to ETA receptors (TE 671 cell membranes). The text has this: (§1) Compounds that are potential endothelin antagonists are identified by testing their ability to compete with ^125I-labeled ET-1 for binding to human ETA receptors or ETB receptors present on isolated cell membranes. The effectiveness of the test compound as an antagonist or agonist of the biological tissue response of endothelin can also be assessed by measuring the effect on endothelin induced contraction of isolated rat thoracic aortic rings. The ability of the compounds to act as antagonists or agonists for ETB receptors can be assessed by testing the ability of the compounds to inhibit endothelin-1 induced prostacyclin release from cultured bovine aortic endothelial cells.
TE 671 cells (ATCC Accession No. HTB 139) express ETA receptors. These cells were grown to confluence in T-175 flasks. Cells from multiple flasks were collected by scraping, pooled and centrifuged for 10 min at 190×g. The cells were resuspended in phosphate buffered saline (PBS) containing 10 mM EDTA using a Tenbroeck homogenizer. The suspension was centrifuged at 4° C. at 57,800×g for 15 min, the pellet was resuspended in 5 ml of buffer A (5 mM HEPES buffer, pH 7.4 containing aprotinin (100 KIU/ml)) and then frozen and thawed once. 5 ml of Buffer B (5 mM HEPES Buffer, pH 7.4 containing 10 mM MnCl2 and 0.001% deoxyribonuclease Type 1) was added, the suspension mixed by inversion and then incubated at 37° C. for 30 minutes. The mixture was centrifuged at 57,800×g as described above, the pellet washed twice with buffer A and then resuspended in buffer C (30 mM HEPES buffer, pH 7.4 containing aprotinin (100 KIU/ml) to give a final protein concentration of 2 mg/ml and stored at −70° C. until use.
The membrane suspension was diluted with binding buffer (30 mM HEPES buffer, pH 7.4 containing 150 mM NaCl, 5 mM MgCl2, 0.5% Bacitracin) to a concentration of 8 μg/50 μl. ^125I-endothelin-1 (3,000 cpm, […]) was added to 50 μL of either: (A) endothelin-1 (for non specific binding) to give a final concentration 80 nM); (B) binding buffer for total binding); or (C) a test compound (final concentration 1 nM to 100 μM). The membrane suspension (50 μL), containing up to 8 μg of membrane protein, was added to each of (A), (B), or (C). Mixtures were shaken, and incubated at 4° C. for 16-18 hours, and then centrifuged at 4° C. for 25 min at 2,500×g. Alternatively, the incubation can be conducted at other temperatures, such as 24° C. When incubated at 24° C., the IC50 concentrations are 2- to 10-fold higher than when the incubation is conducted at 4° C.
The supernatant, containing unbound radioactivity, was decanted and the pellet counted on a Genesys multiwell gamma counter. The degree of inhibition of binding (D) was calculated according to the following equation: [formula]
Each test was generally performed in triplicate.

The target in assay [2] is T2, human ETB receptor (Homo sapiens, UniProt P24530).
T2 construct: expressed in transfected cells; host or cells: COS7 cells, membrane preparation
T2 sequence (P24530 27-442): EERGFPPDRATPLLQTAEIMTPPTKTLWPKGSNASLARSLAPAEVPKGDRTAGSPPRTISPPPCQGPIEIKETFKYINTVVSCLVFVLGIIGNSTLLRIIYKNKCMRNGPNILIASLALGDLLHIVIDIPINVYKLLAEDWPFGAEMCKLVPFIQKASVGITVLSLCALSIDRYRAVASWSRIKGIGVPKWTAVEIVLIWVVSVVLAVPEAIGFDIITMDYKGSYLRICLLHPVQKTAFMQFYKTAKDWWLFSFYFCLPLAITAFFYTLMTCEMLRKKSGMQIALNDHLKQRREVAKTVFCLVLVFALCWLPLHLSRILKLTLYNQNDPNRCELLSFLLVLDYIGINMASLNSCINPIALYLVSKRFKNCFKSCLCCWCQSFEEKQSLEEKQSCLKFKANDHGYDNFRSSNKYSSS
Nature of the assay: Binding Test #2: inhibition of 125I-endothelin-1 binding to ETB receptors (transfected COS7 cell membranes).
From the text: as §1
COS7 cells were transfected with DNA encoding the ETB receptor, The resulting cells, which express the human ETB receptor, were grown to confluence in T-150 flasks. Membrane was prepared as described above. The binding assay was performed as described above using the membrane preparation diluted with binding buffer to a concentration of 1 μg/50 μl.
Briefly, the COS7 cells, described above, that had been transfected with DNA encoding the ETB receptor and express the human ETB receptor on their surfaces were grown to confluence in T-175 flasks. Cells from multiple flasks were collected by scraping, pooled and centrifuged for 10 min at 190×g. The cells were resuspended in phosphate buffered saline (PBS) containing 10 mM EDTA using a Tenbroeck homogenizer. The suspension was centrifuged at 4° C. 57,800×g for 15 min, the pellet was resuspended in 5 ml of buffer A (5 mM HEPES buffer, pH 7.4 containing aprotinin (100 KIU/ml)) and then frozen and thawed once. Five ml of Buffer B (5 mM HEPES Buffer, pH 7.4 containing 10 mM MnCl2 and 0.001% deoxyribonuclease Type 1) was added, the suspension mixed by inversion and then incubated at 37° C. for 30 minutes. The mixture was centrifuged at 57,800×g as described above, the pellet washed twice with buffer A and then resuspended in buffer C (30 mM HEPES buffer, pH 7.4 containing aprotinin (100 KIU/ml) to give a final protein concentration of 2 mg/ml.
The binding assay was performed as described above using the membrane preparation diluted to give 1 μg/50 μl of binding buffer.

The subject of assay [3] is isolated vascular strips. Conditions: read-out: EC50, contractile agent; cited from earlier work.
The test system of assay [4] is ETA and ETB receptors. Nature of the assay: Summary statements on IC50 for ETA and ETB receptors / endothelin antagonist activity. Type of assay: binding, human. Conditions: ETA versus ETB.
From the text: as §1
The membrane suspension was diluted with binding buffer (30 mM HEPES buffer, pH 7.4 containing 150 mM NaCl, 5 mM MgCl2, 0.5% Bacitracin) to a concentration of 8 μg/50 μl. ^125I-endothelin-1 (3,000 cpm, […]) was added to 50 μL of either: (A) endothelin-1 (for non specific binding) to give a final concentration 80 nM); (B) binding buffer for total binding); or (C) a test compound (final concentration 1 nM to 100 μM). The membrane suspension (50 μL), containing up to 8 μg of membrane protein, was added to each of (A), (B), or (C). […]
The IC50 for each of the compounds of the preceding Examples for ETA and ETB receptors has been measured. […]

The test system of assay [5] is ETB receptors. Conditions: concentrations up to 100 μM; cited from earlier work.
The target in assay [6] is ETA receptor. Conditions: read-out: IC50, inhibition of 125I-labelled endothelin-1 binding, cited from earlier work.
The mark [7] stands for this setting: incubation at 4° C., results generally from 1, 2, or 3 experiments, read-out: ETA (μM) IC50.
Setting [8] is: incubation at 4° C., results generally from 1, 2, or 3 experiments, read-out: ETB (μM) IC50.

As to `Cc1noc(NP(=O)(Oc2ccccc2)Oc2ccccc2)c1C` [N-(3,4-dimethyl-5-isoxazolyl)diphenylphosphoramidate], the IC50 in assay [1] was 2.5 µM; in assay [2], more than 100 µM.

Consider `Cc1noc(NP(=O)(c2ccccc2)c2ccccc2)c1Br` [N-(4-bromo-3-methyl-5-isoxazolyl)diphenylphosphinic Amide], for which the IC50 in assay [1] (setting [7]) turned out to be 0.84 µM; in assay [2] (setting [8]) it was 85 µM.

On to “endothelin-1: potent twenty-one amino acid peptide vasoconstrictor”, for which, in assay [3], the half-maximal effective concentration (EC50) is 0.0004 µM.

Turning to `Cc1noc(NP(=O)(Oc2ccccc2)Oc2ccccc2)c1Br` [N-(4-bromo-3-methyl-5-isoxazolyl)diphenylphosphoramidate], the “IC50 for ETA receptors substantially less than for ETB receptors (selectivity)” value in assay [4] was in the range of 10 to 100 fold. Besides, the values for the IC50 in assay [1] and in assay [2] were 0.58 µM and 77 µM, respectively.

Take `Cc1noc(NP(=O)(c2ccccc2)c2ccccc2)c1C` [N-(3,4-dimethyl-5-isoxazolyl)diphenylphosphinic Amide]: the IC50 in assay [1] (setting [7]) is 7.1 µM; in assay [2] (setting [8]) it was more than 100 µM.

Take “cyclo(D-Glu-L-Ala-allo-D-lle-L-Leu-D-Trp) [BE-18257B]”: the “inhibition of binding to receptors in tissues in which ETB receptors predominate” value in assay [5] is given as “fails to inhibit binding”. For the same molecule, the IC50 is 1.4 µM in assay [6] (aortic smooth muscle), 0.5 µM in assay [6] (cultured aortic smooth muscle cells) and 0.8 µM in assay [6] (ventricle membranes).

With `CCOP(=O)(Nc1onc(C)c1Br)OCC` [N-(4-bromo-3-methyl-5-isoxazolyl)diethylphosphoramidate], the IC50 in assay [1] was 20 µM; in assay [2], more than 100 µM.
